From patent US11667632B2, “2-(1H-indazol-3-yl)-3H-imidazo[4,5-C]pyridines and their anti-inflammatory uses thereof” (BioSplice Therapeutics, Inc., priority 2015, dated 2023)

The compounds below were run on IL-6 (assay: Inhibition of IL-6 in LPS-stimulated human monocyte cells (THP-1), HTRF). Conditions: Homo sapiens; THP-1 cells, LPS 500 ng/mL, IL-6 by HTRF.
Type: cell-based
Method: Human Monocyte Cell Culture: A human monocyte cell line (THP-1 cells; Catalog #TIB-202, ATCC, Manassas, Va.) was cultured in Roswell Park Memorial Institute (RPMI) 1640 Medium (Catalog #21870-100, Buffalo, N.Y.) with 1% L-glutamine, 1% HEPES, 1% sodium pyruvate, 2% sodium bicarbonate supplemented with 100 units/mL penicillin, 50 μg/mL streptomycin, 2-mercaptoethanol (0.05 mM) [basal medium] and 10% fetal bovine serum (Catalog #16140089, Life Technologies, Carlsbad, Calif.) at 37° C. and 5% CO2.
Compound Screening: THP-1 cells were cultured in basal media with 1% FBS for 24 hours before the start of the assay. Each compound of Formula (I) was dissolved in DMSO as a 10 mM stock and used to prepare compound source plates. Serial dilution (1:3, 10-point dose-response curves starting from 10 μM) and compound transfer was performed using the ECHO 550 (Labcyte, Sunnyvale, Calif.) into 384-well white low volume assay plates (Greiner Bio-One) with appropriate DMSO backfill for a final DMSO concentration of 0.1%. THP-1 cells were plated at 5000 cells/well in the 384-well plates and incubated at 37° C. for 2 h. 500 ng/mL of LPS was added after 2 hours and cells were incubated for another 22 hours at 37° C. Plates were spun in a centrifuge for 1 minute at 10,000 rpm and a mixture of anti-IL-6 XL665, and anti-IL-6 Cryptate diluted in reconstitution buffer (Cisbio Inc.) was added to each well. Following incubation for 3 hrs at room temperature, homogeneous time-resolved fluorescence (HTRF) was measured using the Envision (Perkin Elmer) at 665 nm and […]. The ratio of fluorescence at 665 nm to 620 nm was used as a readout for IL-6 quantification. All samples were processed in duplicate. Readings were normalized to DMSO treated cells and normalized activities were utilized for EC50 calculations using the dose-response log (inhibitor) vs. response -variable slope (four parameters) nonlinear regression feature available in GraphPad Prism 5.0 (or Dotmatics). For EC50 of >10 μM, the percent inhibition at 10 μM is provided.

SMILES	EC50
CC(C)CC(=O)Nc1cncc(-c2ccc3[nH]nc(-c4nc5c(N6CCN(C)CC6)cncc5[nH]4)c3c2)c1 [Compound 1]	451 nM
CC(C)C(=O)Nc1cncc(-c2ccc3[nH]nc(-c4nc5c(N6CCN(C)CC6)cncc5[nH]4)c3c2)c1 [Compound 2]	290 nM
CN(C)Cc1cncc(-c2ccc3[nH]nc(-c4nc5c(N6CCN(C)CC6)cncc5[nH]4)c3c2)c1 [Compound 3]	273 nM
CN1CCN(c2cncc3[nH]c(-c4n[nH]c5ccc(-c6cncc(N7CCOCC7)c6)cc45)nc23)CC1 [Compound 5]	349 nM
c1cncc(-c2ccc3[nH]nc(-c4nc5c(N6CCOCC6)cncc5[nH]4)c3c2)c1 [Compound 6]	232 nM
CN1CCN(c2cncc(-c3ccc4[nH]nc(-c5nc6ccncc6[nH]5)c4c3)c2)CC1 [Compound 7]	2430 nM
CC(C)C(=O)Nc1cncc(-c2ccc3[nH]nc(-c4nc5ccncc5[nH]4)c3c2)c1 [Compound 9]	2260 nM
CC(C)CC(=O)Nc1cncc(-c2ccc3[nH]nc(-c4nc5c(-c6ccccc6F)cncc5[nH]4)c3c2)c1 [Compound 11]	33 nM
CC(C)CC(=O)Nc1cncc(-c2ccc3[nH]nc(-c4nc5c(-c6ccc(F)cc6)cncc5[nH]4)c3c2)c1 [Compound 12]	45 nM
Fc1cccc(-c2cncc3[nH]c(-c4n[nH]c5ccc(-c6cccnc6)cc45)nc23)c1 [Compound 15]	23 nM
CN(C)Cc1cncc(-c2ccc3[nH]nc(-c4nc5c(-c6cncc(F)c6)cncc5[nH]4)c3c2)c1 [Compound 16]	134 nM
CCC(=O)Nc1cncc(-c2ccc3[nH]nc(-c4nc5c(-c6cncc(F)c6)cncc5[nH]4)c3c2)c1 [Compound 20]	15 nM
CCC(=O)Nc1cncc(-c2ccc3[nH]nc(-c4nc5c(-c6cccc(F)c6)cncc5[nH]4)c3c2)c1 [Compound 24]	19 nM
CC(C)C(=O)Nc1cncc(-c2ccc3[nH]nc(-c4nc5c(-c6ccccc6F)cncc5[nH]4)c3c2)c1 [Compound 31]	14 nM
O=C(Cc1ccccc1)Nc1cncc(-c2ccc3[nH]nc(-c4nc5c(-c6cccc(F)c6)cncc5[nH]4)c3c2)c1 [Compound 86]	42 nM
CN(C)Cc1cncc(-c2ccc3[nH]nc(-c4nc5c(-c6cccc(F)c6)cncc5[nH]4)c3c2)c1 [Compound 89]	44 nM
CC(C)(C)CC(=O)Nc1cncc(-c2ccc3[nH]nc(-c4nc5c(-c6cccc(F)c6)cncc5[nH]4)c3c2)c1 [Compound 90]	42 nM
O=C(Nc1cncc(-c2ccc3[nH]nc(-c4nc5c(-c6cccc(F)c6)cncc5[nH]4)c3c2)c1)C1CC1 [Compound 91]	19 nM
O=C(Nc1cncc(-c2ccc3[nH]nc(-c4nc5c(-c6cccc(F)c6)cncc5[nH]4)c3c2)c1)C1CCCCC1 [Compound 94]	19 nM
Nc1cncc(-c2ccc3[nH]nc(-c4nc5c(-c6ccc(F)cc6)cncc5[nH]4)c3c2)c1 [Compound 97]	122 nM
Cc1ccncc1-c1ccc2[nH]nc(-c3nc4c(-c5ccc(F)cc5)cncc4[nH]3)c2c1 [Compound 99]	40 nM
CC(C)(C)C(=O)Nc1cncc(-c2ccc3[nH]nc(-c4nc5c(-c6ccc(F)cc6)cncc5[nH]4)c3c2)c1 [Compound 102]	53 nM
O=C(Nc1cncc(-c2ccc3[nH]nc(-c4nc5c(-c6ccc(F)cc6)cncc5[nH]4)c3c2)c1)c1ccccc1 [Compound 104]	7240 nM
Fc1ccc(-c2cncc3[nH]c(-c4n[nH]c5ccc(-c6cncc(CN7CCCC7)c6)cc45)nc23)cc1 [Compound 107]	75 nM
O=C(Nc1cncc(-c2ccc3[nH]nc(-c4nc5c(-c6ccc(F)cc6)cncc5[nH]4)c3c2)c1)C1CCC1 [Compound 111]	50 nM
CC(C)Nc1cncc(-c2ccc3[nH]nc(-c4nc5c(-c6ccccc6F)cncc5[nH]4)c3c2)c1 [Compound 124]	47 nM
Fc1ccccc1-c1cncc2[nH]c(-c3n[nH]c4ccc(-c5cncc(CN6CCCCC6)c5)cc34)nc12 [Compound 127]	138 nM
c1cncc(-c2ccc3[nH]nc(-c4nc5c(-c6cccnc6)cncc5[nH]4)c3c2)c1 [Compound 136]	125 nM
Cc1ccncc1-c1ccc2[nH]nc(-c3nc4c(-c5ccncc5)cncc4[nH]3)c2c1 [Compound 154]	188 nM
c1cc(-c2cncc3[nH]c(-c4n[nH]c5ccc(-c6cncc(CN7CCCC7)c6)cc45)nc23)ccn1 [Compound 163]	> 10000 nM

Further lines, results first:

EC50	SMILES
433 nM	c1cc(-c2cncc3[nH]c(-c4n[nH]c5ccc(-c6cncc(CN7CCCCC7)c6)cc45)nc23)ccn1 [Compound 164]
4690 nM	O=C(Nc1cncc(-c2ccc3[nH]nc(-c4nc5c(-c6ccncc6)cncc5[nH]4)c3c2)c1)C1CCCC1 [Compound 170]
> 10000 nM	c1cc(-c2cncc3[nH]c(-c4n[nH]c5ccc(-c6cncc(CNCC7CCCC7)c6)cc45)nc23)ccn1 [Compound 173]
16 nM	CCC(=O)Nc1cncc(-c2ccc3[nH]nc(-c4nc5c(-c6ccccn6)cncc5[nH]4)c3c2)c1 [Compound 174]
30 nM	c1ccc(-c2cncc3[nH]c(-c4n[nH]c5ccc(-c6cccnc6)cc45)nc23)nc1 [Compound 177]
1180 nM	CN(C)Cc1cncc(-c2ccc3[nH]nc(-c4nc5c(-c6ccccn6)cncc5[nH]4)c3c2)c1 [Compound 186]
103 nM	CC(C)CC(=O)Nc1cncc(-c2ccc3[nH]nc(-c4nc5c(N6CCCCC6)cncc5[nH]4)c3c2)c1 [Compound 199]
1220 nM	Cc1ccncc1-c1ccc2[nH]nc(-c3nc4c(N5CCCCC5)cncc4[nH]3)c2c1 [Compound 202]
16 nM	CC(C)(C)C(=O)Nc1cncc(-c2ccc3[nH]nc(-c4nc5c(N6CCCCC6)cncc5[nH]4)c3c2)c1 [Compound 205]
311 nM	c1ncc(-c2ccc3[nH]nc(-c4nc5c(N6CCCCC6)cncc5[nH]4)c3c2)cc1CN1CCCC1 [Compound 211]
59 nM	CCCC(=O)Nc1cncc(-c2ccc3[nH]nc(-c4nc5c(N6CCCCC6)cncc5[nH]4)c3c2)c1 [Compound 214]
14 nM	O=C(Nc1cncc(-c2ccc3[nH]nc(-c4nc5c(N6CCCCC6)cncc5[nH]4)c3c2)c1)C1CCC1 [Compound 217]
474 nM	CN1CCN(c2cncc3[nH]c(-c4n[nH]c5ccc(-c6cncc(N)c6)cc45)nc23)CC1 [Compound 247]
750 nM	CN1CCN(c2cncc3[nH]c(-c4n[nH]c5ccc(-c6cncc(NC(=O)Cc7ccccc7)c6)cc45)nc23)CC1 [Compound 252]
97 nM	CN1CCN(c2cncc3[nH]c(-c4n[nH]c5ccc(-c6cncc(NC(=O)CC(C)(C)C)c6)cc45)nc23)CC1 [Compound 257]
295 nM	CN1CCN(c2cncc3[nH]c(-c4n[nH]c5ccc(-c6cncc(NC(=O)C7CC7)c6)cc45)nc23)CC1 [Compound 260]
224 nM	CN1CCN(c2cncc3[nH]c(-c4n[nH]c5ccc(-c6cncc(NC(=O)C7CCCCC7)c6)cc45)nc23)CC1 [Compound 263]
> 10000 nM	Nc1cncc(-c2ccc3[nH]nc(-c4nc5ccncc5[nH]4)c3c2)c1 [Compound 268]
> 10000 nM	O=C(Cc1ccccc1)Nc1cncc(-c2ccc3[nH]nc(-c4nc5ccncc5[nH]4)c3c2)c1 [Compound 274]
> 10000 nM	O=C(Nc1cncc(-c2ccc3[nH]nc(-c4nc5ccncc5[nH]4)c3c2)c1)c1ccccc1 [Compound 275]
731 nM	CC(C)(C)CC(=O)Nc1cncc(-c2ccc3[nH]nc(-c4nc5ccncc5[nH]4)c3c2)c1 [Compound 280]
> 10000 nM	O=C(Nc1cncc(-c2ccc3[nH]nc(-c4nc5ccncc5[nH]4)c3c2)c1)C1CC1 [Compound 283]
827 nM	O=C(Nc1cncc(-c2ccc3[nH]nc(-c4nc5ccncc5[nH]4)c3c2)c1)C1CCCCC1 [Compound 286]
16 nM	CCC(=O)Nc1cncc(-c2ccc3[nH]nc(-c4nc5c(-c6ccsc6)cncc5[nH]4)c3c2)c1 [Compound 289]
11 nM	Nc1cncc(-c2ccc3[nH]nc(-c4nc5c(-c6ccsc6)cncc5[nH]4)c3c2)c1 [Compound 291]
58 nM	Cc1ccncc1-c1ccc2[nH]nc(-c3nc4c(-c5ccsc5)cncc4[nH]3)c2c1 [Compound 293]
47 nM	CN(C)c1cncc(-c2ccc3[nH]nc(-c4nc5c(-c6ccsc6)cncc5[nH]4)c3c2)c1 [Compound 295]
127 nM	CN(C)Cc1cncc(-c2ccc3[nH]nc(-c4nc5c(-c6ccsc6)cncc5[nH]4)c3c2)c1 [Compound 301]
1010 nM	c1cc(-c2cncc3[nH]c(-c4n[nH]c5ccc(-c6cncc(CN7CCCCC7)c6)cc45)nc23)cs1 [Compound 303]

Same assay, conditions: THP-1 cells, LPS-stimulated; dose-response starting from 10 μM

SMILES	percent inhibition of IL-6 at 10 μM
c1cc(-c2cncc3[nH]c(-c4n[nH]c5ccc(-c6cncc(CN7CCCC7)c6)cc45)nc23)ccn1 [Compound 163]	(30.0%)
c1cc(-c2cncc3[nH]c(-c4n[nH]c5ccc(-c6cncc(CNCC7CCCC7)c6)cc45)nc23)ccn1 [Compound 173]	(11.7%)
Nc1cncc(-c2ccc3[nH]nc(-c4nc5ccncc5[nH]4)c3c2)c1 [Compound 268]	(27.6%)
O=C(Cc1ccccc1)Nc1cncc(-c2ccc3[nH]nc(-c4nc5ccncc5[nH]4)c3c2)c1 [Compound 274]	(24.1%)
O=C(Nc1cncc(-c2ccc3[nH]nc(-c4nc5ccncc5[nH]4)c3c2)c1)c1ccccc1 [Compound 275]	(9.9%)
O=C(Nc1cncc(-c2ccc3[nH]nc(-c4nc5ccncc5[nH]4)c3c2)c1)C1CC1 [Compound 283]	(50.7%)
